Species on record: Rattus norvegicus
Experiment: Open TG-GATES - Regimen: Single
Assay type: toxicity, organism-based, Sprague-Dawley
Design: regimen Single, gender Male, age 6 weeks
Details: in vivo, po, 0 mg/kg, route gavage, dose level Control; for APTT / Bas / Eos / Fbg / Hb / Ht / Lym / MCH / MCHC / MCV / Mono / Neu / PT / Plat / RBC / Ret / WBC: tissue Blood; for KIDNEY_L / KIDNEY_R / KIDNEY_TOTAL: tissue Kidney; for LIVER: tissue Liver; for A/G / ALP / ALT / AST / BUN / CRE / Ca / Cl / DBIL / GLC / IP / K / LDH / Na / PL / RALB / TBIL / TC / TG / TP / gamma-GTP: tissue Plasma

## CCO [ALCOHOL]
3 h
  TERMINAL_BW: 207 g
  APTT: 17.7 s
  Bas: 0%
  Eos: 1%
  Fbg: 200.4 mg/dL
  Hb: 13.3 g/dL
  Ht: 39.9%
  Lym: 76%
  MCH: 21.5 pg
  MCHC: 33.4%
  MCV: 64.2 fL
  Mono: 7.6%
  Neu: 15.2%
  PT: 12 s
  Plat: 110.3 x10_4/uL
  RBC: 622.4 x10_4/ul
  Ret: 8.9%
  WBC: 99.3 x10_2/uL
  KIDNEY_L: 0.9 g
  KIDNEY_R: 1 g
  KIDNEY_TOTAL: 1.9 g
  LIVER: 9.6 g
  A/G: 2.7
  ALP: 951 IU/L
  ALT: 39.2 IU/L
  AST: 69 IU/L
  BUN: 13 mg/dL
  CRE: 0.5 mg/dL
  Ca: 10.8 mg/dL
  Cl: 103.8 meq/L
  DBIL: 0.02 mg/dL
  GLC: 192 mg/dL
  IP: 8.7 mg/dL
  K: 4.5 meq/L
  LDH: 103.2 IU/L
  Na: 140 meq/L
  PL: 145.8 mg/dL
  RALB: 3.9 g/dL
  TBIL: 0.4 mg/dL
  TC: 83.8 mg/dL
  TG: 59.6 mg/dL
  TP: 5.3 g/dL
  gamma-GTP: 1.4 IU/L
6 h
  TERMINAL_BW: 207 g
  APTT: 18.8 s
  Bas: 0%
  Eos: 1%
  Fbg: 212 mg/dL
  Hb: 13.9 g/dL
  Ht: 41.4%
  Lym: 74%
  MCH: 21.8 pg
  MCHC: 33.5%
  MCV: 64.9 fL
  Mono: 9.2%
  Neu: 15.8%
  PT: 11.8 s
  Plat: 116.1 x10_4/uL
  RBC: 638.8 x10_4/ul
  Ret: 10.4%
  WBC: 90.5 x10_2/uL
  KIDNEY_L: 0.9 g
  KIDNEY_R: 1 g
  KIDNEY_TOTAL: 1.9 g
  LIVER: 9.6 g
  A/G: 2.4
  ALP: 727.6 IU/L
  ALT: 32.4 IU/L
  AST: 58.2 IU/L
  BUN: 11 mg/dL
  CRE: 0.5 mg/dL
  Ca: 10.4 mg/dL
  Cl: 105.2 meq/L
  DBIL: 0.06 mg/dL
  GLC: 184.8 mg/dL
  IP: 9.6 mg/dL
  K: 4.8 meq/L
  LDH: 62 IU/L
  Na: 139.6 meq/L
  PL: 141.8 mg/dL
  RALB: 3.8 g/dL
  TBIL: 0.4 mg/dL
  TC: 80.8 mg/dL
  TG: 55 mg/dL
  TP: 5.4 g/dL
  gamma-GTP: 2 IU/L
9 h
  TERMINAL_BW: 201.1 g
  APTT: 20.7 s
  Bas: 0%
  Eos: 1%
  Fbg: 199.2 mg/dL
  Hb: 13.5 g/dL
  Ht: 40.1%
  Lym: 66%
  MCH: 21.8 pg
  MCHC: 33.7%
  MCV: 64.6 fL
  Mono: 9.2%
  Neu: 23.6%
  PT: 12.2 s
  Plat: 112.2 x10_4/uL
  RBC: 620.8 x10_4/ul
  Ret: 11.7%
  WBC: 75.4 x10_2/uL
  KIDNEY_L: 0.9 g
  KIDNEY_R: 0.9 g
  KIDNEY_TOTAL: 1.9 g
  LIVER: 8.3 g
  A/G: 2.8
  ALP: 861 IU/L
  ALT: 30.8 IU/L
  AST: 66.8 IU/L
  BUN: 13.4 mg/dL
  CRE: 0.5 mg/dL
  Ca: 10.7 mg/dL
  Cl: 106.4 meq/L
  DBIL: 0.038 mg/dL
  GLC: 196.2 mg/dL
  IP: 9.8 mg/dL
  K: 5.1 meq/L
  LDH: 74.6 IU/L
  Na: 137.4 meq/L
  PL: 133.4 mg/dL
  RALB: 3.9 g/dL
  TBIL: 0.4 mg/dL
  TC: 74 mg/dL
  TG: 46.6 mg/dL
  TP: 5.3 g/dL
  gamma-GTP: 2 IU/L
24 h
  TERMINAL_BW: 219 g
  APTT: 17.7 s
  Bas: 0%
  Eos: 1.4%
  Fbg: 207.4 mg/dL
  Hb: 13.5 g/dL
  Ht: 39.6%
  Lym: 74.8%
  MCH: 22.3 pg
  MCHC: 34%
  MCV: 65.6 fL
  Mono: 9.8%
  Neu: 14.6%
  PT: 11.6 s
  Plat: 115.5 x10_4/uL
  RBC: 604 x10_4/ul
  Ret: 10%
  WBC: 101.6 x10_2/uL
  KIDNEY_L: 1 g
  KIDNEY_R: 1 g
  KIDNEY_TOTAL: 2 g
  LIVER: 10.4 g
  A/G: 2.6
  ALP: 862 IU/L
  ALT: 39.8 IU/L
  AST: 64.8 IU/L
  BUN: 17.2 mg/dL
  CRE: 0.5 mg/dL
  Ca: 10.9 mg/dL
  Cl: 103.4 meq/L
  DBIL: 0.006 mg/dL
  GLC: 194.4 mg/dL
  IP: 8.5 mg/dL
  K: 4.7 meq/L
  LDH: 87.8 IU/L
  Na: 139 meq/L
  PL: 150.2 mg/dL
  RALB: 4 g/dL
  TBIL: 0.3 mg/dL
  TC: 83 mg/dL
  TG: 100.8 mg/dL
  TP: 5.5 g/dL
  gamma-GTP: 1.4 IU/L
